Results from PubChem BioAssay AID330 (DTP/NCI, 2004).
Several values for one entry are separate records, joined by “and”; a condition that tells them apart may be missing. Identical values can stand only once. Inconclusive results and toxic doses are left out.

System: P388 leukemia ip, CD2F1 mice, survival T/C
Assay: NCI In Vivo Anticancer Drug Screen. Data for tumor model P388 Leukemia (intraperitoneal) in CD2F1 (CDF1) mice
Conditions: endpoint: median survival time, higher = longer survival
How it was run: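 Mice carrying the transplanted tumor received test compound or vehicle. Survival was recorded in each group, and the value is the treated-group measurement divided by that of the vehicle-treated control group.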

[1] = dose: 50.0 mg/kg/injection, schedule: Q01DX009 (ip), vehicle: saline
[2] = dose: 100.0 mg/kg/injection, schedule: Q01DX009 (ip), vehicle: saline
[3] = dose: 50.0 mg/kg/injection, schedule: Q01DX005 (ip), vehicle: saline with Tween-80

With CC1(C)O[Te]2(OC1(C)C)OC(C)(C)C(C)(C)O2 the T/C (dose: 3.12 mg/kg/injection, schedule: Q01DX001 (ip), vehicle: saline with Tween-80) was 100 % of control, the T/C (dose: 6.25 mg/kg/injection, schedule: Q01DX001 (ip), vehicle: saline with Tween-80) was 105 % of control and the T/C (dose: 100.0 mg/kg/injection, schedule: Q01DX001 (ip), vehicle: saline with Tween-80) was 93 % of control.
With CCCCCCCC[N+]1([O-])CCCCC1 the T/C [1] was 97 % of control and the T/C [2] was 102 % of control.
C/C=C/C1OC(O)(C(C)C(O)C(C)C2OC(=O)/C(OC)=C/C(C)=C/C(C)C(O)C(CC)C(O)C(C)C/C(C)=C/C=C/C2OC)CC(OC(=O)/C=C/C(=O)NC2=C(O)CCC2=O)C1C (stereo not drawn) was tested, and the T/C (dose: 0.75 mg/kg/injection, schedule: Q01DX005 (ip), vehicle: Klucel (hydroxypropylcellulose) (HPC)) was 118 % of control, the T/C (dose: 1.5 mg/kg/injection, schedule: Q01DX005 (ip), vehicle: Klucel (hydroxypropylcellulose) (HPC)) was 110 % of control and the T/C (dose: 3.0 mg/kg/injection, schedule: Q01DX005 (ip), vehicle: Klucel (hydroxypropylcellulose) (HPC)) was 108 % of control. For the same molecule, the T/C (dose: 6.0 mg/kg/injection, schedule: Q01DX005 (ip), vehicle: Klucel (hydroxypropylcellulose) (HPC)) was 110 % of control.
COC(=O)c1cc(=O)c2c(ccc3oc(=O)ccc32)[nH]1 was tested, and the T/C [3] was 88 % of control, the T/C (dose: 100.0 mg/kg/injection, schedule: Q01DX005 (ip), vehicle: saline with Tween-80) was 88 % of control and the T/C (dose: 200.0 mg/kg/injection, schedule: Q01DX005 (ip), vehicle: saline with Tween-80) was 90 % of control.
Nc1ncc(C2CO2)c(-c2ccccc2)n1 (stereo not drawn) was tested, and the T/C (dose: 25.0 mg/kg/injection, schedule: Q01DX009 (ip), vehicle: Klucel (hydroxypropylcellulose) (HPC)) was 94 % of control, the T/C (dose: 50.0 mg/kg/injection, schedule: Q01DX009 (ip), vehicle: Klucel (hydroxypropylcellulose) (HPC)) was 103 % of control and the T/C (dose: 100.0 mg/kg/injection, schedule: Q01DX009 (ip), vehicle: Klucel (hydroxypropylcellulose) (HPC)) was 108 % of control.
In the case of CCOS(=O)(=O)c1ccc([N+](=O)[O-])cc1, the T/C (dose: 12.5 mg/kg/injection, schedule: Q01DX009 (ip), vehicle: saline) was 95 % of control, the T/C (dose: 25.0 mg/kg/injection, schedule: Q01DX009 (ip), vehicle: saline) was 100 % of control and the T/C [1] was 98 % of control. For the same molecule, the T/C [2] was 100 % of control and 90 % of control.
For CSc1cc(=O)n2c3ccccc3c3ccnc1c32, the T/C (dose: 2.5 mg/kg/injection, schedule: Q01DX009 (ip), vehicle: saline with Tween-80) was 100 % of control and 120 % of control, the T/C (dose: 5.0 mg/kg/injection, schedule: Q01DX009 (ip), vehicle: saline with Tween-80) was 116 % of control and the T/C (dose: 10.0 mg/kg/injection, schedule: Q01DX009 (ip), vehicle: saline with Tween-80) was 156 % of control.
In the case of c1ccc(-c2cnn3c(-c4ccccc4)cnnc23)cc1, the T/C (dose: 50.0 mg/kg/injection, schedule: Q01DX005 (ip), vehicle: Klucel (hydroxypropylcellulose) (HPC)) was 99 % of control, the T/C (dose: 100.0 mg/kg/injection, schedule: Q01DX005 (ip), vehicle: Klucel (hydroxypropylcellulose) (HPC)) was 99 % of control and the T/C (dose: 200.0 mg/kg/injection, schedule: Q01DX005 (ip), vehicle: Klucel (hydroxypropylcellulose) (HPC)) was 99 % of control.
With COc1ccc(-c2cc(=O)c3c(O)cc(O)cc3o2)cc1Oc1ccc(-c2cc(=O)c3c(O)cc(O)cc3o2)cc1 the T/C (dose: 60.0 mg/kg/injection, schedule: Q01DX005 (ip), vehicle: Klucel (hydroxypropylcellulose) (HPC)) was 96 % of control, the T/C (dose: 120.0 mg/kg/injection, schedule: Q01DX005 (ip), vehicle: Klucel (hydroxypropylcellulose) (HPC)) was 96 % of control and the T/C (dose: 240.0 mg/kg/injection, schedule: Q01DX005 (ip), vehicle: Klucel (hydroxypropylcellulose) (HPC)) was 88 % of control.
CC1CN1CCS(=O)(=O)CCN1CC1C (stereo not drawn) was tested, and the T/C (dose: 50.0 mg/kg/injection, schedule: Q01DX009 (ip), vehicle: saline with Tween-80) was 95 % of control and the T/C (dose: 100.0 mg/kg/injection, schedule: Q01DX009 (ip), vehicle: saline with Tween-80) was 104 % of control.
For CC1=CC(=O)CCC12CCOC2=O (stereo not drawn), the T/C (dose: 60.0 mg/kg/injection, schedule: Q01DX005 (ip), vehicle: saline with Tween-80) was 104 % of control, the T/C (dose: 120.0 mg/kg/injection, schedule: Q01DX005 (ip), vehicle: saline with Tween-80) was 101 % of control and the T/C (dose: 240.0 mg/kg/injection, schedule: Q01DX005 (ip), vehicle: saline with Tween-80) was 101 % of control.
With CCOC(=O)Nc1cc(NC/C(=N/O)c2ccc(Cl)cc2)c([N+](=O)[O-])c(N)n1 the T/C (dose: 50.0 mg/kg/injection, schedule: Q01DX001 (ip), vehicle: Klucel (hydroxypropylcellulose) (HPC)) was 90 % of control and the T/C (dose: 100.0 mg/kg/injection, schedule: Q01DX001 (ip), vehicle: Klucel (hydroxypropylcellulose) (HPC)) was 87 % of control.
In the case of CN(C)c1ccc(C(=C(c2ccc(N(C)C)cc2)c2ccc(N(C)C)cc2)c2ccc(N(C)C)cc2)cc1, the T/C (dose: 12.5 mg/kg/injection, schedule: Q01DX005 (ip), vehicle: saline with Tween-80) was 96 % of control, the T/C (dose: 25.0 mg/kg/injection, schedule: Q01DX005 (ip), vehicle: saline with Tween-80) was 92 % of control and the T/C [3] was 89 % of control.
